Assay results: US20220160703A1, “TUMOR-SELECTIVE COMBINATION THERAPY” (The Board of Regents of The University of Texas System, priority 2019, published 2022)

Assays:
TC-1 tumor = experiment: TC-1 subcutaneous tumor model; type: in vivo
Description: (FIG. 2A) MC38 cells were subcutaneously transplanted into C57BL/6 WT (n=5-6/group) and Rag1 KO mice (n=5/group), respectively. Tumor bearing mice were treated with β-lap (0.3 mg, i.t.) every other day for four times. […] (FIG. 2B) MC38 tumor bearing C57BL/6 mice (n=5/group) were treated with β-lap (0.3 mg, i.t.) every other day for four times. For CD8^+ T cell depletion, 200 μg of anti-CD8 antibodies were intraperitoneally injected four times at three days interval during the treatment. (FIG. 2C) TC-1 tumor bearing C57BL/6 mice (n=4-5/group) were treated with β-lap (0.1 mg, i.t.) for four times with or without anti-CD8 antibodies. […] (FIG. 2E) 2×10^6 A549 cells were subcutaneously injected into C57BL/6 Rag1^−/− mice (n=5/group for vehicle and β-lap; n=7/group for vehicle+OT-1 and β-lap+OT-1). 30 days later, the mice were i.v. adoptively transfected with 2×10^6 lymph node cells from OT-1 transgenic mice. On the following day, tumor-bearing mice were intratumorally treated with β-lap (0.2 mg) every other day for 4 times. (FIG. 2F) A549 cells were subcutaneously injected into NSG-SGM3 (n=5/group) or NSG-SGM3 harboring human CD34^+ hematopoietic stem cells (n=5/group for Hu-NSG vehicle; n=6/group for Hu-NSG β-lap). Tumor bearing mice were treated with β-lap (0.2 mg, i.t.) every other day for four times. Tumor growth was measured twice a week.
(FIG. 15A) C57BL/6J WT or rag−/− mice (n=5/group) were inoculated subcutaneously (s.c.) with 6×10^5 MC38 cells and treated intratumorally (i.t.) with 0.15 mg of IB-DNQ or vehicle on day 10, day 12, day 14 and day 16. (FIG. 15B) C57BL/6J WT or rag−/− mice (n=5/group) were inoculated subcutaneously (s.c.) with 1×10^5 TC-1 cells and treated intratumorally (i.t.) with 0.15 mg of IB-DNQ or vehicle on day 10, day 12, day 14 and day 16. Tumor diameters were measured by calipers twice a week. Tumor volume is presented as mean±SD. *p<0.05, **p<0.01, ***P<0.001.
FIGS. 17A-I (related to FIGS. 1A-J). […] (FIG. 17A) NQO1 expression in different murine cancer cell lines was determined by western blotting assay. […] (FIG. 17C) MC38 cells (NQO1 WT or KO) were treated with β-lap for 3 hr followed by washing and replacing fresh medium. Cell viability was determined by Sulforhodamine B (SRB) Assay 48 hr later. […] (FIG. 17E, FIG. 17F) B16 cells (NQO1 null or stable overexpression) were treated with β-lap with or without dicoumarol (DIC, 50 μM) for 3 hr followed by washing and replacing medium. Cell viability was determined by SRB Assay 48 hr later. […] Catalase (1000 U/ml) was added and cell viability was assessed 48 hr later. (FIG. 17H) C57BL/6 mice (n=5/group) were transplanted with TC-1 cells, and intratumorally treated with β-lap (0.1 or 0.3 mg) every other day for four times. Tumor growth was monitored twice a week. […] Data are shown as mean±SEM. **P<0.01, ***P<0.001, ****P<0.0001 determined by unpaired student t-test (FIG. 17G) or two-way ANOVA (FIG. 17H and FIG. 17I).
6×10^5 MC38 or 8×10^5 MC38 NQO1 KO cells were subcutaneously transplanted into Rag1^−/−, C57BL/6, and NSG mice, respectively (n=5/group). Tumor-bearing mice were treated with IB-DNQ (12 mg/kg, i.t.) or 20% HPβCD (Vehicle) every other day for four times after tumor volumes reached to 50 mm^3.

A549 tumor = experiment: A549 xenograft in NSG-SGM3 humanized mouse model; type: in vivo, mice; conditions: Hu-NSG-SGM3 versus NSG-SGM3, β-lap 0.2 mg i.t. four times
Description: FIGS. 2A-F. β-Lap's antitumor effect is CD8^+ T cell dependent. (FIG. 2A) MC38 cells were subcutaneously transplanted into C57BL/6 WT (n=5-6/group) and Rag1 KO mice (n=5/group), respectively. Tumor bearing mice were treated with β-lap (0.3 mg, i.t.) every other day for four times. Numbers of tumor free mice after treatment were shown. (FIG. 2B) MC38 tumor bearing C57BL/6 mice (n=5/group) were treated with β-lap (0.3 mg, i.t.) every other day for four times. For CD8^+ T cell depletion, 200 μg of anti-CD8 antibodies were intraperitoneally injected four times at three days interval during the treatment. […] (FIG. 2D) Naïve (n=5/group) and β-lap cured MC38 tumor free (n=7/group) C57BL/6 mice were rechallenged subcutaneously with 3×10^6 MC38 cells on the opposite site from the primary tumor 30 days after complete rejection, and tumor growth curve was monitored. […] Tumor growth was measured twice a week. Data are shown as mean±SEM from three independent experiments. **P<0.01, ***P<0.001, ****P<0.0001 determined by two-way ANOVA.
For NSG-SGM3 humanized mouse model, four-week-old NSG-SGM3 female mice were irradiated with 100 cGy (X-ray irradiation with X-RAD 320 irradiator) one day prior to human CD34+ cells transfer. […] Tumor volumes were measured at least twice weekly. […]

CC1(C)CCC2=C(O1)c1ccccc1C(=O)C2=O [β-lap, β-lapachone]
tumor response in WT mice (TC-1 tumor; 3 doses of β-lap (0.3 mg i.t.)): tumor regression occurred
tumor response in rag−/− mice (TC-1 tumor; 3 doses of β-lap (0.3 mg i.t.)): but not in adaptive immune-deficient rag^−/− mice
antitumor efficacy in STING deficient mice (TC-1 tumor; β-lap 0.3 mg i.t.): significantly impaired the antitumor efficacy
tumor growth (TC-1 tumor; β-lap 0.1 or 0.3 mg i.t. every other day four times): significant tumor suppression
tumor growth inhibition with anti-CD8 antibody (TC-1 tumor; β-lap + anti-CD8 antibody versus β-lap alone): complete failure of tumor growth inhibition
tumor control in presence of human immune system (A549 tumor): much better tumor control
